Test results as given in patent US12427151B2, “Compositions and method of treating cancer” (The Regents of the University of California, priority 2017, dated 2025).

Tests used:
GAS [1] = assay: Subcutaneous GAS deep skin infection in mice; assay type: in vivo, C57BL6 mouse; conditions: single intravenous injection 20 mg/kg after GAS inoculation
Experimental: (a-c) Effect of a single intravascular injection of 6-HAP on skin infection by GAS. The size of the infected lesion was measured by Image-J software (a). Representative images of infected skin (arrow) of mouse treated with 6-HAP or vehicle at Day-1 and Day-3 post infection are shown in (b). Infected skin was removed 24 and 72 hrs after bacterial injection and homogenized in PBS (c). CFUs were enumerated by plating serial dilutions of the homogenate on an agar plate. The data represent mean±SE of eight individual experiments (*P<0.05 and **P<0.01 by Student's t-test vs vehicle control). (d-e) Effect of repeated intravascular administrations with 6-HAP on growth of melanoma in mice. The data represent mean±SE of 10 individual experiments (*P<0.05, **P<0.01 and ***P<0.001 by Student's t-test vs vehicle control) (d). Representative images of tumor (broken line) in mouse treated with 6-HAP or vehicle at Day-9 and Day-13 are shown in (e).
For subcutaneous infection, mouse dorsal skin was subcutaneously injected with GAS (1×10^7 CFU/50 μL in PBS) by 31 G needle. […] Wound development was monitored everyday by taking photographs along with a wound ruler and lesion size was measured with ImageJ ([http://]rsbweb.nih.gov/ij/)(hyperlink disabled by brackets). […]

GAS (NZ131) = assay: BrdU incorporation assay in bacteria; assay type: cell-based, group A Streptococcus; conditions: 6-HAP 25 μg/mL, 30 or 60 min
Experimental: (a) Time course killing of GAS in THB containing 6-HAP (25 μg/mL), mitomycin C (5 μg/mL), or LL-37 (10 μM). At each indicated time point, live GAS in the media was measured by counting CFU on an agar plate. The data represent mean±SE of four individual experiments. (b) Membrane permeability of GAS incubated in THB containing 6-HAP (25 μg/mL), mitomycin C (5 μg/mL) and LL-37 (10 μM) for 1 hr. The bacteria with compromised plasma membranes (Red) can be distinguished from those with intact membranes (Green). (c) BrdU incorporation into nascent DNA of GAS after incubation with 6-HAP (25 μg/mL) or mitomycin C (5 μg/mL) in THB containing BrdU (10 μM) for 30 or 60 min. (d) BrdU incorporation into nascent DNA of S. epidermidis ATCC12228 after incubation with 6-HAP (25 μg/mL) or mitomycin C (5 μg/mL) in THB containing BrdU (10 μM) for 60 min. The data represent mean±SE of five individual experiments (*P<0.05 and **P<0.01 by Student's t-test vs vehicle control). (e-f) Capacity of 6-HAP to block in vitro DNA extension by Klenow fragment polymerase. […] Extension reaction was analyzed on a 20% acrylamide gel by electrophoresis (f). […] GAS survival was measured by counting CFU. […]
BrdU incorporation assay. […] BrdU incorporation into nascent DNA was measured in a time-dependent manner using BrdU incorporation assay kit (Roche) according to the manual.

L5178 lymphoma = assay: Cell proliferation assay (BrdU incorporation); assay type: cell-based, mouse; conditions: L5178, 4-hr incubation
Experimental: (§1) Proliferative activity of tumor cell line, L5178 (a), YAC-1 lymphoma (b), B16F10 melanoma (c) after 4-hr incubation in suitable media containing indicated concentrations of 6-HAP or mitomycin C (10 μg/mL). Proliferative activity of cells was determined by monitoring BrdU incorporation. The data represent mean±SE of four individual experiments.
(§2) Cell culture and cell proliferation assay. B16F10 mouse melanoma, Pam212, L5178 and YAC-1 mouse […] cell lines were obtained from American Type Culture Collection. Pam212, L5178 and YAC-1 cell lines were maintained in RPMI-1640 supplemented with sodium pyruvate (1 mM), nonessential amino acids (0.1 mM), penicillin (100 unit/mL), streptomycin (100 μg/mL) and 10% heat-inactivated fetal bovine serum (FBS) or horse serum at 37° C. under atmosphere of 5% (v/v) CO2 in air. B16F10 cell line was maintained in DMEM supplemented with penicillin (100 unit/mL), streptomycin (100 μg/mL) and 10% heat-inactivated FBS. NHEKs were obtained from Invitrogen (Life technologies, Grand Island, NY) and maintained in EpiLife medium (Life technologies) supplemented with 60 μM Calcium, epidermal growth factors, penicillin and streptomycin. After 4-hr (tumor cell lines) or 24-hr (NHEK) incubation with 6-HAP, proliferative activity of cells was colorimetrically determined by monitoring BrdU incorporation with Cell Proliferation kit according to the manual (Roche).

YAC-1 lymphoma = assay: Cell proliferation assay (BrdU incorporation); assay type: cell-based, mouse; conditions: YAC-1, 4-hr incubation
Experimental: as §1, §2

B16F10 melanoma = assay: Cell proliferation assay (BrdU incorporation); assay type: cell-based, mouse; conditions: B16F10, 4-hr incubation
Experimental: as §1, §2

GAS [2] = assay: Time course killing of GAS; assay type: cell-based, group A Streptococcus; conditions: THB; 6-HAP 25 μg/mL, mitomycin C 5 μg/mL, LL-37 10 μM
Experimental: (a) Time course killing of GAS in THB containing 6-HAP (25 μg/mL), mitomycin C (5 μg/mL), or LL-37 (10 μM). At each indicated time point, live GAS in the media was measured by counting CFU on an agar plate. The data represent mean±SE of four individual experiments. (b) Membrane permeability of GAS incubated in THB containing 6-HAP (25 μg/mL), mitomycin C (5 μg/mL) and LL-37 (10 μM) for 1 hr. The bacteria with compromised plasma membranes (Red) can be distinguished from those with intact membranes (Green). (c) BrdU incorporation into nascent DNA of GAS after incubation with 6-HAP (25 μg/mL) or mitomycin C (5 μg/mL) in THB containing BrdU (10 μM) for 30 or 60 min. (d) BrdU incorporation into nascent DNA of S. epidermidis ATCC12228 after incubation with 6-HAP (25 μg/mL) or mitomycin C (5 μg/mL) in THB containing BrdU (10 μM) for 60 min. The data represent mean±SE of five individual experiments (*P<0.05 and **P<0.01 by Student's t-test vs vehicle control). (e-f) Capacity of 6-HAP to block in vitro DNA extension by Klenow fragment polymerase. Extension reaction was carried out with IRDye800-labeled 18-nt primer (SEQ ID NO:57) and 25-nt template which required adenosine (X=T) or cytidine (X=G) at the initial base for extension (SEQ ID NO:58) (e). Extension reaction was analyzed on a 20% acrylamide gel by electrophoresis (f). […] GAS survival was measured by counting CFU. […]

**Q.** ONc1ncnc2nc[nH]c12 [6-HAP, 6-N-hydroxyaminopurine] was tested. Which “GAS survival in infected skin” value (GAS [1]) did it give?
**A.** significantly suppressed

**Q.** What about the clinical lesion size (GAS [1]) of the same compound?
**A.** significantly suppressed

**Q.** And the “BrdU incorporation into the genomic DNA of GAS” value (GAS (NZ131))?
**A.** Significant suppression

**Q.** And the BrdU incorporation (L5178 lymphoma)?
**A.** inhibited

**Q.** What about the BrdU incorporation (YAC-1 lymphoma) of the same compound?
**A.** inhibited

**Q.** And the BrdU incorporation (B16F10 melanoma)?
**A.** inhibited

**Q.** And the “kinetics of killing, growth of GAS over time” value (GAS [2])?
**A.** at a rate similar to mitomycin C but slower than LL37
